Measured values taken from US5726203A, “Qinghaosu derivatives against AIDS” (priority 1993, dated 1998).
Where a name gives a salt, the structure may show the parent alone. Read-outs that look alike come from different tables or passages of the source.

Tests used:
[1] = tested on: Plasmodium Berghei; assay: Peters' four day inhibition test in mice, erythrocytic stage of Plasmodium Berghei; assay type: in vivo; conditions: once a day D0-D3, Hybrid Kunming strain mice, read-out: SD50 (the source's name)
Source text: Effect on Erythrocytic Stage of Plasmodium Berghei 1. "Four day inhibition test" in mice To determinate the SD50 with Peters' "four day inhibition test". Hybrid Kunming strain mice, body weight 18-22 g, were inculated with 1×10^7 parasites infected RBC intraperitoneally on D0. Dihydroqinghaosu-methylcarbamate, dihydroqinghaosu-butylcarbamate, dihydroqinghaosu-benzenecarbamate and dihydroqinghaosu-4-nitrobenzenecarbamate with different concentration were given once a day from D0 -D3. Blood smears from mouse's tail were made on D4, stained with Gimsa reagent and examined under microscope to count the infected and uninfected erthrocyte to get infected rate. Inhibitory rates of different dosages were calculated by following formula. The SD50 was calculated by the simplified probit analysis: [formula]

[2] = tested on: HIV-1 (MT4); assay: Anti-HIV effect on MT4 cells, virus antigen expression (immunoenzymatic method); assay type: cell-based
Source text: The virus used was HIV-1 which had been obtained from Professor Montagnier of the Pastear Institute, France. The virus titer used in the experiment was 1×10^4 TCID50 /ml. The cell culture used was CEM cell line which was cultivated in the HIV laboratory of Institute of Virology, Chinese Academy of Preventive Medicine, for cultivation storage of HIV-1.
The compounds used in the experiment were qinghaosu, dihydroqinghaosu, Artesunate, Artemether, dihydroqinghaosu-methylcarbamate, dihydroqinghaosu-benzenecarbamate, qinghaosu-morpholinyl propylether maleate, dihydroqinghaosu-diethyl amino ethyl ether maleate, deoxyqinghaosu-morpholinyl ethyl ether maleate, qinghaosu-morpholinyl propanol ether maleate, qinghaosu-3,5-dimonpholinyl methyl-4-hydroxy benzyl ether maleate, dihydroqinghaosu-m-chlorobenzoate, qinghaosu-3-pyrrolidinylmethyl-4-hydroxybenzoate oxalate, and qinghaosu-3-morpholinylmethyl-4-hydroxybenzoate oxalate. […] The concentration of the original solution of these compounds were all 1 mg/ml.
(§1) a. Freshly cultured MT4 cells (5×10^5 /ml) were co-cultivated with the virus fluid (10^3 TCID50 /ml) in a CO2 incubator at 37° C. for 1-1.5 hours. RPMI 1640 complete medium (containing 10% Bovine serum and antibiotics, such as penicillin) was used to wash the unbound virus.
(§2) Complete medium was added to correct the concentration for use.
(§3) The experiment was carried out on the plates with 96 wells. 0.1 ml of the above-mentioned infected MT4 cell suspension was added into each well, and then 0.1 ml of various concentrations of the drugs were added. […] Each concentration of the drugs was added into two wells. Both the experiment group and the control group were incubated in a CO2 incubator at 37° C. The drug solution were changed 3 days later, and the following observations were carried out 6 days afterwards.
b. Observation on the growth situation of cells. Trypan blue dye was used to observe the quantity of live cells in each group.
(§4) c. Determination of the virus antigen expression. The immunoenzymatic method was used to examine the virus antigen expression. Cells from each group were separately smeared in two wells. They were fixed with cold acetone, HIV-positive serum was dropped into the wells. After incubated in a CO2 incubator at 37° C. for 30 minutes, they were washed with PBS for 3 times. Enzyme-labelled SPA was dropped into the wells. They were incubated in the same condition for 30 minutes, washed with PBS for 3 times, and then put in substrate solution to stain for 2-3 minutes, washed with distilled water, and observed under microscope. Normal cells were colorless, whereas virus-carrying cells appeared browrish red.
The mark used were as follows:
The experiment was repeated two to three times.
The concentration of the original fluid of these compounds were all 1 mg/ml. 0.1 ml was taken and added into 0.1 ml of virus-carrying cell suspension, thus the reaction concentrations were as follows: in the original fluid group, 0.1 mg/0.2 ml, i.e., 0.5 mg/ml; in 1×10^-1group, 0.05 mg/ml; in 1×10^-2 group, 0.005 mg/ml; in 1×10^-3 group, 0.0005 mg/ml, i.e., 0.5 μg/ml; and on the analogy of this.

[3] = Acute toxicity in mice; assay type: in vivo; conditions: mouse, in vivo
Protocol: Animals: Hybrid swiss strain mice (provided by Animal House of Institute of Chinese Mateia Media, China Academy of Traditional Chinese Medicine), 20-22 grams, less than 6 weeks age of both sexes fed in laboretory for 3-5 days observation and a random taking food and drinking.
Drugs: Dihydroqinghaosu-methylcarbamate and dihydroqinghaosu-benzenecarbamate.
Above two drugs in powder form were dissolved into peanut oil. The biggest dose were 2000 mg/kg and 2161 mg/kg respectively. The distances between two dose groups were 0.7 and 0.68 respectively, with 5 dose groups each drugs.
Method: The mice were given single dose of above compound respectively intragastrically, the acute intoxication manifestrations were observed the LD value (LD5, LD50 and LD95) and B value were determined by three days mortality.

[4] = tested on: U937 HIV-1; assay: Inhibition effect on HIV-1 infected U937 cells (macrophage cell line), HIV antigen test (IE); assay type: cell-based; conditions: U937 HIV-1; 50 μg/ml
Protocol: as §1, §2, §3, §4
(§5) Furthermore, a part of the compounds according to the present invention were used to test their inhibition effect on U937 cell line (macrophage cell line)according to the methods in Experiment 1.

[5] = tested on: U937 HIV-1; assay: Inhibition effect on HIV-1 infected U937 cells, activity of reverse transcriptase; assay type: cell-based; conditions: 50 μg/ml, control 24502
Source text: as §5

[6] = cited from earlier work

Compound	effect on HIV-1 (MT4), virus antigen expression ([2]; 1 × 10^-1 (50 μg/ml))	effect on HIV-1 (MT4), virus antigen expression ([2]; 1 × 10^-2 (5 μg/ml))	effect on HIV-1 (MT4), virus antigen expression ([2]; 1 × 10^-3 (0.5 μg/ml))	other results
CCCCNC(=O)OC1OC2OC3(C)CCC4C(C)CCC(C1C)C24OO3 (stereo not shown) [Dihydroqinghaosu-butylcarbamate, dihydroqinghaosu-butylcarbamate]	–	–	–	ED50 [1]: 0.25 mg/kg
CCN(CC)CCOC1OC2OC3(C)CCC4C(C)CCC(C1C)C24OO3 (stereo not shown) [dihydroqinghaosu-diethyl amino ethyl ether maleate]	± (there were only 1-2 doubtful positive cells in whole well)	+ (there were 2-3 or more positive cells in the whole well)	+ (there were 2-3 or more positive cells in the whole well)	–
CO[C@H]1O[C@@H]2O[C@@]3(C)CC[C@H]4[C@H](C)CC[C@@H]([C@H]1C)[C@@]24OO3 [Artemether, reference compound]	- (positive cells were not seen in the whole well)	- (positive cells were not seen in the whole well)	± (there were only 1-2 doubtful positive cells in whole well)	effect on HIV-1 (MT4), virus antigen expression ([2]; 1 × 10^-4 (0.05 μg/ml)): + (there were 2-3 or more positive cells in the whole well); LD50 ([3]; im, I.M. (Intramuscular injection)): 263 mg/kg
Deoxyquinghaosu-morpholinyl propanol ether maleate	- (positive cells were not seen in the whole well)	+ (there were 2-3 or more positive cells in the whole well)	- (positive cells were not seen in the whole well)	–
qinghaosu-3-pyrrolidinylmethyl-4-hydroxybenzoate oxalate	- (positive cells were not seen in the whole well)	+ (there were 2-3 or more positive cells in the whole well)	- (positive cells were not seen in the whole well)	–
qinghaosu-3-morpholinylmethyl-4-hydroxybenzoate oxalate	± (there were only 1-2 doubtful positive cells in whole well)	+ (there were 2-3 or more positive cells in the whole well)	+ (there were 2-3 or more positive cells in the whole well)	–
C[C@H]1[C@@H](O)O[C@@H]2O[C@@]3(C)CC[C@H]4[C@H](C)CC[C@@H]1[C@@]24OO3 [Dihydroqinghaosu, dihydroqinghaosu, reference compound]	- (positive cells were not seen in the whole well)	- (positive cells were not seen in the whole well)	± (there were only 1-2 doubtful positive cells in whole well)	effect on HIV-1 (MT4), virus antigen expression ([2]; 1 × 10^-4 (0.05 μg/ml)): + (there were 2-3 or more positive cells in the whole well); LD50 ([3]; po, P.O. (per os)): 765 mg/kg
C[C@H]1[C@H](OC(=O)CCC(=O)O)O[C@@H]2O[C@@]3(C)CC[C@H]4[C@H](C)CC[C@@H]1[C@@]24OO3 [Artesunate, reference compound]	- (positive cells were not seen in the whole well)	- (positive cells were not seen in the whole well)	- (positive cells were not seen in the whole well)	effect on HIV-1 (MT4), virus antigen expression ([2]; 1 × 10^-4 (0.05 μg/ml)): + (there were 2-3 or more positive cells in the whole well); Antigen test (IE) [4]: - (positive cells were not seen in the whole well); Activity of reverse transcription (CPM) [5]: 4846 CPM; LD50 ([3]; I.V. (Intravenous injection)): 769 mg/kg
CC1CCC2C(C)C(OC(=O)Nc3ccc([N+](=O)[O-])cc3)OC3OC4(C)CCC1C32OO4 (stereo not shown) [Dihydroqinghaosu-4-nitrobenzenecarbamate, Dihydroqinghaosu-P-Nitrobenzenecarbamate]	–	–	–	ED50 [1]: 0.3 mg/kg
O=c1[nH]cnc2c1ncn2[C@H]1CC[C@@H](CO)O1 [DDI, di-deoxytrophicardyl]	–	–	–	toxicity to peripheral nerves ([6]; in vivo): toxicity to peripharal nerves
Nc1ccn([C@H]2CC[C@@H](CO)O2)c(=O)n1 [DDC, di-deoxycytidine]	–	–	–	toxicity to peripheral nerves ([6]; appears 6 weeks after drug administration): toxicity to peripharal nerves
qinghaosu-morpholinyl propylether maleate	- (positive cells were not seen in the whole well)	+ (there were 2-3 or more positive cells in the whole well)	+ (there were 2-3 or more positive cells in the whole well)	–
CC1CCC2C(C)C(OC(=O)c3cccc(Cl)c3)OC3OC4(C)CCC1C32OO4 (stereo not shown) [Dihydroqinghaosu-m-chlorobenzoate, dihydroqinghaosu-m-chlorobenzoate]	- (positive cells were not seen in the whole well)	- (positive cells were not seen in the whole well)	+ (there were 2-3 or more positive cells in the whole well)	–
qinghaosu-morpholinyl propanol ether maleate	+ (there were 2-3 or more positive cells in the whole well)	+ (there were 2-3 or more positive cells in the whole well)	+ (there were 2-3 or more positive cells in the whole well)	–
C[C@@H]1CC[C@H]2[C@@H](C)C(=O)O[C@@H]3O[C@@]4(C)CC[C@@H]1[C@]32OO4 [Qinghaosu, Qinghaosu (Artemisinin)]	- (positive cells were not seen in the whole well)	- (positive cells were not seen in the whole well)	+ (there were 2-3 or more positive cells in the whole well)	effect on HIV-1 (MT4), virus antigen expression ([2]; 1 × 10^-4 (0.05 μg/ml)): + (there were 2-3 or more positive cells in the whole well)
CC1CCC2C(C)C(OCc3cc(CN4CCOCC4)c(O)c(CN4CCOCC4)c3)OC3OC4(C)CCC1C32OO4.O=C(O)/C=C\C(=O)O (stereo not shown) [qinghaosu-3,5-dimonpholinyl methyl-4-hydroxy benzyl ether maleate]	+ (there were 2-3 or more positive cells in the whole well)	+ (there were 2-3 or more positive cells in the whole well)	+ (there were 2-3 or more positive cells in the whole well)	–
